Test results published in paper PMC3542833 (Journal of the American Chemical Society, 2012).

Experiments:
tubulin [1] = assay: tubulin assembly assay; type: biochemical; settings: read-out: Inhibition of Tubulin Assembly IC50±SD; enantiopure analogues
tubulin [2] = assay: inhibition of colchicine binding; settings: 5 μM inhibitor; enantiopure analogues
NCI-60 = assay: NCI 60-cell screen; type: cell-based; settings: read-out: NCI-60 Mean GI50; mean over NCI-60 panel; enantiopure analogues
tubulin [3] = settings: previous finding; ref 5a; cited from earlier work

(+)-chamaecypanone C [(+)-2]
IC50 (tubulin [1]): 2.2 ± 0.3 µM | % Inhibition of Colchicine Binding ± SD (tubulin [2]): 30±4.0% | GI50 (NCI-60): 0.28 µM | activity of chamaecypanone C enantiomers (in words) (tubulin [3]): active
